US7139665B2, “Computational method for designing enzymes for incorporation of non natural amino acids into proteins” (California Institute of Technology, priority 2002, dated 2006)
Entries after “also recorded” stand apart in the source; their conditions may differ.

How the values were obtained:
ePheRS* [1] = target: T1, ePheRS* (Escherichia coli, UniProt P08312, A294G); assay: In vivo translational activity: mDHFR expression in E. coli AF-IQ[pQE-FS*] over-expressing ePheRS* (Ala294Gly); format: cell-based; details: ePheRS* over-expressed, Phe-depleted media supplemented with 2 (250 mg/L), versus background (-phe)
T1 construct: expressed in transfected cells; host or cells: E. coli AF-IQ[pQE-FS*]
T1 sequence (P08312 whole entry A294G): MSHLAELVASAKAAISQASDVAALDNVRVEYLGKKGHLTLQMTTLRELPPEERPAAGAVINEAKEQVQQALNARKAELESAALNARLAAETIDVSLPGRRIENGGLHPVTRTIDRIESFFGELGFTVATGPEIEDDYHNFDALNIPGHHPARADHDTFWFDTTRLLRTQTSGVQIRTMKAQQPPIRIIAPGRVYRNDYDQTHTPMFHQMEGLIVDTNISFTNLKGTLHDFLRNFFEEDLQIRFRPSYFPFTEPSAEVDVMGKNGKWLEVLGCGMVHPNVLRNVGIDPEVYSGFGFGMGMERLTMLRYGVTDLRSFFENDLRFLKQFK
T1 sequence (P07395 whole entry, further chain): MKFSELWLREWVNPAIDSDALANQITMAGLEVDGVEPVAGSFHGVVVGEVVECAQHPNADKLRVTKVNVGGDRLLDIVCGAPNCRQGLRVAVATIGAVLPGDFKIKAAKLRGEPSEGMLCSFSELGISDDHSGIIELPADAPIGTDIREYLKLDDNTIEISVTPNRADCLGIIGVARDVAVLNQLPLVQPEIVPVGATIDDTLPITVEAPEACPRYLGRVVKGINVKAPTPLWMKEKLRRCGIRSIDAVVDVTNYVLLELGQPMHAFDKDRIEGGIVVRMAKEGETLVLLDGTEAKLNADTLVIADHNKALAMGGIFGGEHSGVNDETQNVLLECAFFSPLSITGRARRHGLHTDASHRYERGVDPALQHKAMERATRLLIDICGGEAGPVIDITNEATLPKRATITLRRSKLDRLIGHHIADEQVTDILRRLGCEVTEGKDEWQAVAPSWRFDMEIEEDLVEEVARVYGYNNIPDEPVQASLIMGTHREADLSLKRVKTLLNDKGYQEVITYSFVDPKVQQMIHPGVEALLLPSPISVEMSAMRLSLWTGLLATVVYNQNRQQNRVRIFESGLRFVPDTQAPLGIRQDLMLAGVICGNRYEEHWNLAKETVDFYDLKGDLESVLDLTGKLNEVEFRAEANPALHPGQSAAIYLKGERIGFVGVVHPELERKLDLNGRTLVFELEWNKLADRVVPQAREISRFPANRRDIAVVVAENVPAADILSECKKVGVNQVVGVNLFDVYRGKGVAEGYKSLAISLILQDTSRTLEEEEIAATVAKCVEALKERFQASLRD

ePheRS = target: T2, ePheRS (Escherichia coli, UniProt P08312); assay: In vivo translational activity: mDHFR expression in Phe-auxotrophic E. coli AF-IQ[pQE15] (no mutant synthetase); format: cell-based; details: phenylalanine-free minimal media supplemented with 2 (250 mg/L), 4 hr post-induction, versus background (-phe)
T2 construct: endogenous in cells; host or cells: E. coli AF-IQ[pQE15]; (Phe-auxotrophic BL21(DE3) derivative)
T2 sequence (P07395 whole entry): as the sequence (P07395 whole entry, further chain) above
T2 sequence (P08312 whole entry): as the sequence (P08312 whole entry A294G) above, with G294A counted along it

ePheRS** = target: T3, ePheRS** (Escherichia coli, UniProt P08312, A294G/T251G); format: cell-based
T3 construct: expressed in transfected cells; host or cells: E. coli AF-IQ[pQE-FS**]
T3 sequence (P08312 whole entry T251G/A294G): as the sequence (P08312 whole entry A294G) above, with T251G counted along it
T3 sequence (P07395 whole entry, further chain): as the sequence (P07395 whole entry, further chain) above

ePheRS* [2] = target: T1, ePheRS*; details: over-expression of ePheRS*; earlier work; cited from earlier work

For `CC(=O)c1ccc(C[C@H](N)C(=O)O)cc1` [compound 2, p-acetylphenylalanine], the “protein (mDHFR) expression, SDS-PAGE of whole cell lysates” value (“protein (mDHFR) expression, SDS-PAGE” below) (ePheRS* [1]) was “did not produce substantial yields of protein; also recorded: neither AF-IQ[pQE15] nor AF-IQ[pQE-FS*] exhibits protein expression above background”, the “protein (mDHFR) expression, SDS-PAGE” value (ePheRS) was “neither AF-IQ[pQE15] nor AF-IQ[pQE-FS*] exhibits protein expression above background” and the “protein (mDHFR) expression, SDS-PAGE” value (ePheRS**; AF-IQ[pQE-FS**], phenylalanine-free minimal media supplemented with 2 (250 mg/L)) was “high levels of mDHFR expression”. For the same compound, the “replacement of 1 by 2 in mDHFR” value (ePheRS**; from MALDI-TOF mass increase of mDHFR-2, mDHFR contains 9 Phe residues) was “approximately 80%” and the “misincorporation of canonical amino acids” value (ePheRS**; media supplemented with 2) was “no detectable misincorporation”.

In the case of `[N-]=[N+]=Nc1ccc(C[C@H](N)C(=O)O)cc1` [p-azidophenylalanine], the “incorporation into recombinant proteins in E. coli hosts” value (“incorporation into recombinant proteins” below) (ePheRS* [2]) is given as “efficient incorporation”.

In the case of `N[C@@H](Cc1ccc(Br)cc1)C(=O)O` [p-bromophenylalanine], the “incorporation into recombinant proteins” value (ePheRS* [2]) is given as “efficient incorporation”.

In the case of `N#Cc1ccc(C[C@H](N)C(=O)O)cc1` [p-cyanophenylalanine], the “incorporation into recombinant proteins” value (ePheRS* [2]) is listed as “efficient incorporation”.

For `C#Cc1ccc(C[C@H](N)C(=O)O)cc1` [p-ethynylphenylalanine], the “incorporation into recombinant proteins” value (ePheRS* [2]) is listed as “efficient incorporation”.

For `N[C@@H](Cc1ccc(I)cc1)C(=O)O` [p-iodophenylalanine], the “incorporation into recombinant proteins” value (ePheRS* [2]) is given as “efficient incorporation”.

For `N[C@@H](Cc1c[nH]c2ccccc12)C(=O)O` [tryptophan], the “misincorporation into protein by ePheRS**” value (ePheRS**; phe starvation conditions in the absence of 2) was “misincorporation”.

With `N[C@@H](Cc1ccc(O)cc1)C(=O)O` [tyrosine] the misincorporation into protein (ePheRS**; under any conditions) was “not observed misincorporation”.
